Data: PMC4558462, “A new small molecule inhibitor of soluble guanylate cyclase” (Bioorganic & Medicinal Chemistry, 2015)

Target: T1, sGC (Homo sapiens, UniProt Q02108+Q02153)
T1 sequence (Q02108 1-690): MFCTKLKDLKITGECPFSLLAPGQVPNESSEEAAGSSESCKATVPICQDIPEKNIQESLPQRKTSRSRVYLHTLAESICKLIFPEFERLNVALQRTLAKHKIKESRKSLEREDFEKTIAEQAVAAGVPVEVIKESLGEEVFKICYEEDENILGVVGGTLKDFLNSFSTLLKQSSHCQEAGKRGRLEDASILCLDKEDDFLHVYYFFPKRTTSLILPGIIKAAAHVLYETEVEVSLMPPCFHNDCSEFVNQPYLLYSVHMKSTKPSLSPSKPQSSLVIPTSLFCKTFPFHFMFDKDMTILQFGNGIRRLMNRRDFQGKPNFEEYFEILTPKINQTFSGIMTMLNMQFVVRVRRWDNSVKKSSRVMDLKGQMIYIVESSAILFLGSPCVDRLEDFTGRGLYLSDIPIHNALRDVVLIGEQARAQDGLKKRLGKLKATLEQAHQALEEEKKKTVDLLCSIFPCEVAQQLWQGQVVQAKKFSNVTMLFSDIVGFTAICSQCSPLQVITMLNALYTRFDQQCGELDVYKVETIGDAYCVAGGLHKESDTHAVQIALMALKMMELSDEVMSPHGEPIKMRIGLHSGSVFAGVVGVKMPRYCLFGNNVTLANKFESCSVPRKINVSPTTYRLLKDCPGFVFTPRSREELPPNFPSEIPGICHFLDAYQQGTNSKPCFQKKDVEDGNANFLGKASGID
T1 sequence (Q02153 1-619): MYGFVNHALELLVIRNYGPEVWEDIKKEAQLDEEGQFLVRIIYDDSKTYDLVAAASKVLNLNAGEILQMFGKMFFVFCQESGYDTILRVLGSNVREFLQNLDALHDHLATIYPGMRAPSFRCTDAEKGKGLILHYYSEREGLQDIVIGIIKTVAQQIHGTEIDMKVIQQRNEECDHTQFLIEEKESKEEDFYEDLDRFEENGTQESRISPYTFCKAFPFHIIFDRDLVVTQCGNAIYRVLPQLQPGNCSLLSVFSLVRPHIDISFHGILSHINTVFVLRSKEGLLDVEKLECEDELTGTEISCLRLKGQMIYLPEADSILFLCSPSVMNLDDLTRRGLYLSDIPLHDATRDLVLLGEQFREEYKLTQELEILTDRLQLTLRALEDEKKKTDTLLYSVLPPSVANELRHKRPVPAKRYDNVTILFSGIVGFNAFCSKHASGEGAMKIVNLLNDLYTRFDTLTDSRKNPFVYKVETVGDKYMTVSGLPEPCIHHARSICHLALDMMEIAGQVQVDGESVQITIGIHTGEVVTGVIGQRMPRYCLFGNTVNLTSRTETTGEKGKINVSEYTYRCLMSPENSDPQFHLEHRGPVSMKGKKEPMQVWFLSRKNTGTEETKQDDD
Assay: Earlier laboratory observation of effect on sGC (data not shown)
Format: biochemical
Details: low millimolar concentrations
Procedure: In the course of studies in our laboratory we observed activation of sGC with the anti-epileptic drug lamotrigine 2 and inhibition with lamotrigine analogues sipatrigine 3 and 4, all at low millimolar concentrations (data not shown) (Fig. 1). These compounds were used as the starting point for a screening study to find new inhibitors of sGC. The strategy was to conduct several rounds of similarity searching and screening to identify the best inhibitors. Some synthetic studies were conducted on the best hit to explore the structure–activity relationships.

Row | effect on sGC | Structure (SMILES)
1 | activation | Nc1nnc(-c2cccc(Cl)c2Cl)c(N)n1 [Compound 2, lamotrigine]
2 | inhibition | Nc1nc(N)c(-c2cc(Cl)cc(Cl)c2Cl)c(C(F)(F)F)n1 [Compound 4]
3 | inhibition | CN1CCN(c2ncc(-c3cc(Cl)cc(Cl)c3Cl)c(N)n2)CC1 [Compound 3, sipatrigine]
